In patent US4621145A, “Process for preparing 5-vinyl-2-pyrrolidinone and intermediates therefor” (Merrell Dow Pharmaceuticals Inc., priority 1982, dated 1986):

How the values were obtained:
GABA-T enzyme = test: Biological activity of 4-amino-5-hexenoic acid enantiomers; settings: GABA-T inhibition
GABA-T [1] = settings: reported by Lippert et al. and Bouclier et al.; cited from earlier work
[2] = test system: γ-aminobutyric acid transaminase (GABA-T); settings: background, U.S. Pat. No. 3,960,927 and literature; cited from earlier work
[3] = test system: level of γ-aminobutyric acid (GABA) in the CNS; settings: background; cited from earlier work
GABA-T [4] = test: GABA-T activity in mice brain, test method of Jung et al., J. Neurochemistry; assay type: in vivo; settings: 4 hours after injection
Text: (§1) The biochemical and pharmacological effects of 4-aminohex-5-ynoic acid are described in Jung et al., Biochem. and Biophys. Res. Comm., 67, 301 (1975); Jung et al., J. Neurochemistry, 28, 717 (1977); Jung et al., Biochemistry, 17, 2628 (1978); Bouclier et al., Eur. J. Biochem., 98, 363 (1979); Biochem. Pharmacology, 28, 1705 (1979); and Lippert et al., Brain Research Bull., 5, 375 (1980). […] For example, (R)-4-aminohex-5-ynoic acid gave the follow effects on GABA-T activity and GABA concentrations in mice brain using the test method of Jung et al., J. Neurochemistry, supra:
(§2) ^(a) 4 hours after injection of the test compound, i.p.

[5] = test system: GABA concentrations in mice brain; test: GABA concentrations in mice brain, test method of Jung et al., J. Neurochemistry; assay type: in vivo; settings: 4 hours after injection
Text: as §1, §2

GABA-T [6] = test: Chronic oral experiment in rats: GABA-T activity in homogenates of brain minus the cortex; assay type: in vivo; settings: oral daily 100 mg/kg, 24 hours after last dose
Protocol: (§3) In a chronic experiment, a group of five rats was given oral daily doses of 100 mg/kg of (R)-4-aminohex-5-ynoic acid. A separate group of animals was used as control. Twenty-four hours after the last dose, the animals were sacrificed and the cortex was dissected from the rest of the brain.

[7] = test system: GABA concentration in homogenates of the cortex; test: Chronic oral experiment in rats: GABA concentration in homogenates of the cortex; assay type: in vivo; settings: oral daily 100 mg/kg, 24 hours after last dose, vs controls
Protocol: as §3

[8] = set-up: species or system rats; settings: rat, in vivo, po, 100 mg/kg
[9] = test system: convulsions and death, induced by mercaptopropionic acid; test: Protection of mice against effects induced by mercaptopropionic acid; assay type: in vivo; settings: mercaptopropionic acid 53 mg/kg i.p. 6 hours after
[10] = set-up: species or system mice; settings: mouse, in vivo, ip, 400 mg/kg
GABA-T [11] = test: Irreversible inhibition of GABA-T in vitro; assay type: biochemical
GABA-T [12] = test: Irreversible inhibition of GABA-T in vivo

C=C[C@@H](N)CCC(=O)O [(S)-4-amino-5-hexenoic acid, (S)-4-Amino-5-hexenoic acid]
biological activity of the enantiomer (GABA-T enzyme): biologically active

C#C[C@@H](N)CCC(=O)O [(S)-4-aminohex-5-ynoic acid]
irreversible inhibition of GABA-T (reported as only active enantiomer) (GABA-T [1]): irreversibly inhibit GABA-T

C=CC(N)CCC(=O)O (stereo not drawn) [4-Amino-5-hexenoic acid]
irreversible inhibition of GABA-T [2]: irreversible inhibitor | increase of GABA level in the CNS [3]: capable of increasing the level of γ-aminobutyric acid (GABA) in the CNS

C#C[C@H](N)CCC(=O)O [(R)-4-aminohex-5-ynoic acid, (R)-4-Aminohex-5-ynoic acid]
% Inhibition of GABA-T (GABA-T [4]; 25 mg/kg i.p.): 31% | % Inhibition of GABA-T (GABA-T [4]; 50 mg/kg i.p.): 50% | % Inhibition of GABA-T (GABA-T [4]; 100 mg/kg i.p.): 66% | % Inhibition of GABA-T (GABA-T [4]; 200 mg/kg i.p.): 81% | GABA Concentration % Control ([5]; 25 mg/kg i.p.): 103 % Control | GABA Concentration % Control ([5]; 50 mg/kg i.p.): 125 % Control | GABA Concentration % Control ([5]; 100 mg/kg i.p.): 180 % Control | GABA Concentration % Control ([5]; 200 mg/kg i.p.): 275 % Control | GABA-T activity decrease as compared to controls (GABA-T [6]): 81% | GABA concentration in homogenates of the cortex [7]: approximately doubled | body weight effect [8]: lost body weight | course of body weight and hair loss effects [8]: appeared to disappear during the second week | hair loss [8]: lost hair on their backs | protection against convulsions and death induced by mercaptopropionic acid ([9]; 100 mg/kg i.p.): protect mice against convulsions and death | protection against running fits ([9]; 100 mg/kg i.p.): no protection against running fits | protection against convulsions and death induced by mercaptopropionic acid ([9]; 200 mg/kg i.p.): protect mice against convulsions and death | protection against running fits ([9]; 200 mg/kg i.p.): no protection against running fits | death [10]: dead | sedation [10]: produced sedation | time to sedation [10]: ≤ 30 min | irreversible inhibition of GABA-T (GABA-T [11]): irreversible inhibitor of GABA-T | irreversible inhibition of GABA-T (GABA-T [12]): irreversible inhibitor of GABA-T

C=C[C@H](N)CCC(=O)O [(R)-4-amino-5-hexenoic acid]
biological activity of the enantiomer (GABA-T enzyme): biologically inactive
